These results are taken from ChEMBL document CHEMBL5303711, “ECBD screening data for assay EOS300108” (2023).

Structures are written as SMILES. The source made the active and inactive calls. No rule for the calls is given here.

This data set in a line: Cytotoxicity activity against human HepG2 cells assessed by CellTiter-Glo luminescent cell viability assay. The data set is classed as toxicity, cell-based. Also noted: assay stage confirmatory assay, source tissue liver. To be noted: HepG2 cells, read-out: IC50 relative.
Regarding `Nc1ncnc2c1c(-c1cnc3[nH]ccc3c1)nn2C1CCCC1`, the CC50 was 1.6 µM (active).
For the compound `CS(=O)(=O)CCNCc1ccc(-c2ccc3ncnc(Nc4ccc(OCc5cccc(F)c5)c(Cl)c4)c3c2)o1`, the CC50 is 6.1 µM (active).
Turning to `Cc1ccc(Nc2ncc3c(n2)N(C)C(=O)N(c2cc(NC(=O)c4cccc(C(F)(F)F)c4)ccc2C)C3)cn1`, the CC50 is 0.1 µM (active).
As for `CC(=O)Nc1nc(C)c(-c2ccc(Cl)c(S(=O)(=O)NCCO)c2)s1`, the CC50 was 4 µM (active).
With `C#CCN(Cc1cc2c(=O)[nH]c(C)nc2cc1Br)c1ccc(C(=O)NCc2cccnc2)cc1`, the CC50 is 0.1 µM (active).
For `CC(C)n1nc(-c2cc3cc(O)ccc3[nH]2)c2c(N)ncnc21`, the CC50 is 2.6 µM (active).
The figure for `CN(C)CCCNC(=O)c1ccc(-c2cc(O)c3ncccc3c2)cc1` is 8 µM (active); for `CN(C)c1ccc(C(=O)NCCCCCCC(=O)NO)cc1` it is 0.9 µM (active); for `O=S(=O)(c1cccc2c(I)cccc12)N1CCCNCC1` it is 9.7 µM (active).
With `O=C(Nc1cccnc1)N1CCC(Cc2cccc(Oc3ccc(C(F)(F)F)cn3)c2)CC1` the figure was 12.7 µM (active); with `CC(C)c1cnn2c(NCc3ccccc3)cc(NCCCCCCN)nc12`, 9.3 µM (active).
For `COc1cc2c(NC3CCN(C4CCCCC4)CC3)nc(N3CCCN(C(C)C)CC3)nc2cc1OCCCN1CCCCC1`, the CC50 is 6.6 µM (active).
Consider `COc1cc2c(NC3CCN(CC4CCCCC4)CC3)nc(N3CCCN(C(C)C)CC3)nc2cc1OCCCN1CCCCC1`, for which the CC50 is 1.1 µM (active).
Take `O=C(c1ccc(Nc2nccc(-c3cc4ccccc4s3)n2)cc1)N1CCC(N2CCCC2)CC1`: the CC50 was 1.3 µM (active).
`CN1CCCN(C(=O)c2cccc(-c3ccc(/C=C4/C(=O)Nc5ccc(Cl)cc54)o3)c2)CC1`: the CC50 is 0.6 µM (active).
For the compound `COc1cc2c(cc1Cc1cccc(Cl)c1F)c(=O)c(C(=O)O)cn2[C@H](CO)C(C)C`, the CC50 was 10.2 µM (active).
Regarding `COc1cc(C)c(Sc2cnc(NC(=O)c3ccc(CNC(C)C(C)(C)C)cc3)s2)cc1C(=O)N1CCN(C(C)=O)CC1` (stereo not drawn), the CC50 was 7.5 µM (active).
As for `COc1cc(Nc2cnc(C#N)c(O[C@H](C)CN(C)C)n2)ncc1-c1cnn(C)c1`, the CC50 was 10.4 µM (active).
With `Cc1cc(C)cc(C(=O)NOCCCCCC(=O)NO)c1` the figure was 0.5 µM (active); with `COc1ccc2c(c1)c(C1=C(c3c[nH]c4ccccc34)C(=O)NC1=O)cn2CCCN(C)C`, 4.7 µM (active).
The figure for `CCOC(=O)[C@H](Cc1ccc([N+](=O)[O-])cc1)NC(=O)c1ccccc1` is 15.4 µM (active).
For `CN[C@@H](C)C(=O)N[C@H](C(=O)N1CCC[C@H]1C(=O)N[C@H]1c2ccccc2C[C@H]1OCC#CC#CCO[C@@H]1Cc2ccccc2[C@@H]1NC(=O)[C@@H]1CCCN1C(=O)[C@@H](NC(=O)[C@H](C)NC)C1CCCCC1)C1CCCCC1`, the CC50 is 3.7 µM (active).
As to `c1ccc(Cn2c(-c3ccc(OC[C@H](C4CCNCC4)n4c(-c5ccccc5)nc5ccccc54)cc3)nc3ccccc32)cc1`, the CC50 was 1.6 µM (active).
The figure for `Cc1c2ccncc2c(C)c2c1[nH]c1ccccc12` is 1.4 µM (active); for `COc1cc2c3c(n(CCCNCCO)c(=O)c2cc1OC)-c1cc2c(cc1C3=O)OCO2` it is 1.1 µM (active); for `COc1cc(-c2cc(-c3ccc(N4CCNCC4)cc3)cnc2C)cc(OC)c1OC` it is 9.1 µM (active).
As for `CNc1nc(NCc2ccc(NS(C)(=O)=O)cc2Cl)cc(-c2ccccn2)n1`, the CC50 is 14.3 µM (inactive).
The figure for `Cc1ccc2c(NS(=O)(=O)c3ccccc3Cl)cccc2c1Oc1ncccc1-c1ccnc(N[C@H]2CCCNC2)n1` is 5.2 µM (active).
With `O=C1/C(=C/c2ccc([N+](=O)[O-])cc2)CS(=O)(=O)C/C1=C\c1ccc([N+](=O)[O-])cc1` the figure was 0.1 µM (active).
With `CCN1CCN(Cc2ccc(C(=O)Nc3ccc(C)c(Oc4ccc5c(c4)CC(=O)N5)c3)cc2C(F)(F)F)CC1`, the CC50 is 6.2 µM (active).
On to `CN(C)C/C=C/C(=O)Nc1ccc(C(=O)Nc2cccc(Nc3ncc(Cl)c(-c4c[nH]c5ccccc45)n3)c2)cc1`, for which the CC50 is < 0.1 µM (active).
Take `C[C@@H]1COCCN1c1cc(=O)n2c(n1)N(Cc1cncc(Cl)c1)[C@H](C(F)(F)F)CC2`: the CC50 is 14.5 µM (inactive).
For the compound `O=C(NO)c1cnc(NC2(c3ccccc3)CC2)nc1`, the CC50 is 7 µM (active).
On to `Cc1cc(O)c(-c2ccc([C@@H](C)CN)cc2)c2c1[nH]c(=O)c1sccc12`, for which the CC50 is 0.1 µM (active).
As for `CCNC(=O)C#Cc1ccc2c(c1)NC(=O)/C2=C(\Nc1ccc(CN(C)C)cc1)c1ccccc1`, the CC50 was < 0.1 µM (active).
With `CNc1ncc2cc(-c3ccc(-c4cccc(C)n4)cc3Cl)c(=O)n(C[C@H]3OC[C@H](N)CO3)c2n1` the figure was 4.5 µM (active); with `COc1ccccc1C(=O)Nc1cc2c(cc1N1CCNC[C@H]1C)n(C)c(=O)n2C`, 16.9 µM (inactive).
In the case of `Cc1cc(N2CCOCC2)cc2[nH]c(-c3c(NC[C@@H](O)c4cccc(Cl)c4)cc[nH]c3=O)nc12`, the CC50 was 2.3 µM (active).
As for `C=CC(=O)Nc1ccc(CN(C(=O)Nc2c(Cl)c(OC)cc(OC)c2Cl)c2cc(Nc3ccc(N4CCN(C)CC4)cc3)ncn2)cc1`, the CC50 is 4.7 µM (active).
The figure for `CCOc1cc(/C=C2/C(=O)N(c3ccccc3)N=C2C)cc(Cl)c1OCC(=O)OC` is 12.3 µM (active).
The figure for `CC(C)(C)C[C@H]1N[C@@H](C(=O)N[C@H]2CC[C@H](O)CC2)[C@H](c2cccc(Cl)c2F)[C@@]12C(=O)Nc1cc(Cl)ccc12` is 4.9 µM (active); for `CC(C)(C)N1C(=O)C(Nc2ccc(N3CCCCC3)cc2)=C(c2ccccc2)S1(=O)=O` it is 4.9 µM (active).
In the case of `N#Cc1ccc(COC[C@H]2O[C@@H](n3c(NCc4ccc(Cl)c(Cl)c4)nc4c(N)ncnc43)[C@H](O)[C@@H]2O)cc1`, the CC50 is 3 µM (active).
Consider `C=CC(=O)Nc1ccc2ncnc(Nc3ccc(OCc4cccc(F)c4)c(Cl)c3)c2c1`, for which the CC50 was 7.7 µM (active).
The figure for `C=CCNC1=C2C[C@@H](C)C[C@H](OC)[C@H](O)[C@@H](C)/C=C(/C)[C@H](OC(N)=O)[C@@H](OC)/C=C\C=C(\C)C(=O)NC(=CC1=O)C2=O` is < 0.1 µM (active).
For the compound `COc1cccc(OCCCN)c1-c1cc(Nc2cnc(C#N)cn2)n[nH]1`, the CC50 was 0.3 µM (active).
The figure for `c1ccc2c(-c3cnn4cc(-c5ccc(N6CCNCC6)cc5)cnc34)ccnc2c1` is 0.5 µM (active); for `COc1cc(C(=O)NC2CCN(C)CC2)c(F)cc1Nc1ncc2c(n1)N(C1CCCC1)CC(F)(F)C(=O)N2C` it is 4.1 µM (active).
Take `C=CC(=O)Nc1cccc(Oc2nc(Nc3ccc(N4CCN(C)CC4)c(F)c3)nc3[nH]ccc23)c1`: the CC50 is 1.9 µM (active).
With `CNc1cc2c(Nc3cccc(Br)c3)ncnc2cn1`, the CC50 was 20.5 µM (inactive).
For the compound `COc1cc2nc(N3CCCN(C)CC3)nc(NC3CCN(Cc4ccccc4)CC3)c2cc1OC`, the CC50 was 0.9 µM (active).
Turning to `NCC1CCN(c2nccc(-c3ccc4ccccc4c3)n2)CC1`, the CC50 is 4.4 µM (active).
With `COc1ccc(CNc2nc(N(CCO)CCO)nc3c2ncn3C(C)C)cc1` the figure was 0.8 µM (active).
